Experimental data reported in patent US7700566B2, “Mosquito control method” (priority 2006, dated 2010).

System: Aedes albopictus (Asian Tiger Mosquito) larvae
Assay: Larval development of Aedes albopictus in sugar-containing aqueous environment
Format: in vivo
Conditions: single sugar
Protocol: The combinations and ratios of sugars experimentally tested to date have been chosen to be generally equivalent to the combinations and ratios of sugars found in natural nectars. For example, a 5% tangerine nectar equivalent solution is created by dissolving approximately 6.2 grams of sucrose, approximately 1.9 grams of dextrose (glucose) and approximately 1.9 grams of fructose in 200 ml of water. This provides a solution that is approximately 3.1% sucrose, approximately 0.95% dextrose and approximately 0.95% fructose. A 5% strawberry nectar equivalent solution is created by dissolving approximately 0.7 grams of sucrose, approximately 5.3 grams of dextrose (glucose) and approximately 4.0 grams of fructose in 200 ml of water. This provides a solution that is approximately 0.35% sucrose, approximately 2.65% dextrose and approximately 2.0% fructose. A 5% white mangrove nectar equivalent solution is created by dissolving approximately 2.2 grams of sucrose, approximately 3.2 grams of dextrose (glucose) and approximately 4.6 grams of fructose in 200 ml of water. This provides a solution that is approximately 1.1% sucrose, approximately 01.6% dextrose and approximately 2.3% fructose. The three sugars sucrose, dextrose and fructose were also tested independently in 5% aqueous solutions. Lower concentrations of 0.5%, 1.0% and above of the nectar equivalent solutions and independent sugars were also prepared and tested.
In tests using Aedes albopictus (Asian Tiger Mosquito) or Aedes aegypti (Yellow Fever Mosquito) larvae, 5% solutions of each of the tangerine, strawberry and white mangrove nectar equivalent solutions were independently produced using either phosphate buffered saline or pure water in conjunction with the sugars to create the aqueous environments. Larvae were then introduced into the 5% solution aqueous environments in varying numbers. […] In a further test, liver powder was added to the various solutions above as a nutrient to spur larval development.

| SMILES | larvae emerged as adults (0.5% solution) [%] | larval development past the second instar stage (5% solution) | larvae emerged as adults (5% solution) [%] |
| --- | --- | --- | --- |
| O=C(CO)[C@@H](O)[C@H](O)[C@H](O)CO [fructose] | 100 | no larvae developed past the second instar stage | – |
| OC[C@H]1O[C@@](CO)(O[C@H]2O[C@H](CO)[C@@H](O)[C@H](O)[C@H]2O)[C@@H](O)[C@@H]1O [sucrose] | 77 | – | 13 |
